# Patent publication US20230406843A1, “Progranulin Modulators and Methods of Using the Same” (ARKUDA THERAPEUTICS, priority 2020, published 2023)
# Legend:
# progranulin [1] = assay: In vivo progranulin secretion assay after oral administration; settings: oral administration at 5 mg/kg; progranulin secretion post dose relative to the control
# Method: In vivo Assays: Progranulin can be detected in tissue sample or biofluids including blood, plasma, brain, liver and cerebrospinal fluid (CSF) from different non-human animals including rat, mouse, dog, and cynomolgus monkeys. Progranulin concentration can be detected using one or more methods including an enzyme-linked immunosorbent assay (ELISA). Non-human animals including rat, mouse, dog, and cynomolgus monkeys are administered a compound as disclosed herein by one of several routes of administration including oral, subcutaneous, and intravenous routes of administration. Samples of tissue or biofluids are collected at specific times before and following compound administration. The amount of progranulin in a specific sample collected after compound administration is compared to the amount of progranulin detected in a sample of the same tissue or biofluid obtained prior to compound administration. […] Test compounds can be administered one or more times. When compounds are administered more than one time, the number of doses and the intervals between doses can be adjusted to any combination. For example, a test compound can be administered a single time, a test compound can be administered 8 times at intervals of 12 hours, and a test compound can be administered 4 times at intervals of 24 hours. The ability of a compound to increase progranulin can be quantified in several ways. […]
# progranulin [2] = assay: Progranulin induction cellular assay (ELISA of secreted mouse PGRN); type: cell-based; settings: progranulin induction assay; mouse pMG, primary cortical neurons and BV-2 cell lines named, cell type not given; ELISA-based readout; read-out: EC50
# Method in brief: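 Secreted mouse PGRN in culture medium is measured by ELISA. Cells tested are BV-2, primary cortical neurons and primary microglia. BV-2 cells are plated a day ahead, allowed 1 h to attach, then incubated 16 h.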
Compound,EC50 (progranulin [2]) [nM],Activity Level (progranulin [1])
"N[C@@H]1CC[C@@H](C(=O)N2CCc3ccccc3[C@@H]2c2ccc(F)cc2)OC1 [Compound 5015, ((2S,5R)-5-aminotetrahydro-2H-pyran-2-yl)((S)-1-(4-fluorophenyl)-3,4-dihydroisoquinolin-2(1H)-yl)methanone]",90,7 (at least about 300% (Activity level 7))
"N[C@H]1CC[C@H](C(=O)N2CCc3ccccc3[C@@H]2c2ccc(F)cc2)OC1 [Compound 5042, ((2R,5S)-5-aminotetrahydro-2H-pyran-2-yl)((S)-1-(4-fluorophenyl)-3,4-dihydroisoquinolin-2(1H)-yl)methanone]",79,6 (at least about 250% (Activity level 6))
"N[C@H]1C[C@H](C(=O)N2CCc3ccccc3[C@@H]2c2ccc(F)cc2)OC[C@@H]1OC(F)(F)F [Compound 5507, ((2R,4S,5R)-4-amino-5-(trifluoromethoxy)tetrahydro-2H-pyran-2-yl)((S)-1-(4-fluorophenyl)-3,4-dihydroisoquinolin-2(1H)-yl)methanone]",1,
"C[N-][S@@+2](C)([O-])[C@H]1CO[C@@H](C(=O)N2CCc3ccccc3[C@@H]2c2ccc(F)cc2)C[C@@H]1N (single isomer, unassigned) [Compound 5555]",29,

# Second part, led by results:
EC50 (progranulin [2]) [nM],Compound,Activity Level (progranulin [1])
91,"N[C@@H]1CC[C@H](C(=O)N2CCc3ccccc3[C@@H]2c2ccc(F)cc2)OC1 (single isomer, unassigned) [Compound 5017]",
15,"C[C@H]1CO[C@@H](C(=O)N2CCc3ccccc3[C@@H]2c2ccc(F)cc2)C[C@@H]1N [Compound 5518, ((2R,4S,5R)-4-amino-5-methyltetrahydro-2H-pyran-2-yl)((S)-1-(4-fluorophenyl)-3,4-dihydroisoquinolin-2(1H)-yl)methanone]",
